Results from patent publication US6057315A, “Antibacterial agents” (Warner-Lambertt Company, priority 1999, dated 2000).
≈ marks a conversion by molar mass, not a printed value.

Tests used:
Assay in all cases: Antibacterial MIC, standard microtitration
Format in all cases: cell-based
[1] = system: B. subtilis RB1; conditions: Bacillus subtilis, Gram positive, read-out: Minimum Inhibitory Concentrations
Description: (§1) The compounds of the present invention were tested against an assortment of gram positive and gram negative organisms using standard microtitration techniques (Cohen, et. al. Antimicrobial Agents Chemother. 1985, 28, 766; Heifetz, et. al. Antimicrobial Agents Chemother. 1974, 6, 124) and the results are given in Table 1.

[2] = system: E. Coli MC4100; conditions: Escherichia coli, Gram negative, read-out: Minimum Inhibitory Concentrations
Description: as §1

[3] = system: E. coli B90; conditions: Escherichia coli, Gram negative, read-out: Minimum Inhibitory Concentrations
Description: as §1

[4] = system: E. coli Tol C; conditions: Escherichia coli, read-out: Minimum Inhibitory Concentrations
Description: as §1

[5] = system: S. aureus 29213; conditions: Staphylococcus aureus, Gram positive, read-out: Minimum Inhibitory Concentrations
Description: as §1

[6] = system: S. pyogenes C203; conditions: Streptococcus pyogenes, Gram positive, read-out: Minimum Inhibitory Concentrations
Description: as §1

`CCCc1c(O)cc2oc3cccn3c(=O)c2c1O` [Example 6, 6,8-Dihydroxy-7-propyl-9H-pyrrolo[2,1-b][1,3]benzoxazin-9-one] gave an MIC [1] of 4 µg/mL (≈ 15.4 µM), an MIC [2] greater than 64 µg/mL and an MIC [3] of 4 µg/mL (≈ 15.4 µM). It also gave an MIC [4] of 2 µg/mL (≈ 7.71 µM), an MIC [5] of 2 µg/mL (≈ 7.71 µM) and an MIC [6] of 4 µg/mL (≈ 15.4 µM).

`CCCc1c(O)cc2oc3cc(Cl)c(C=O)n3c(=O)c2c1O` [Example 9, 2-Chloro-6,8-dihydroxy-9-oxo-7-propyl-9H-pyrrolo[2,1-b][1,3]benzoxazine-1-carboxaldehyde] gave an MIC [1] of 1 µg/mL (≈ 3.11 µM), an MIC [2] greater than 64 µg/mL and an MIC [3] of 4 µg/mL (≈ 12.4 µM). The MIC [4] was 2 µg/mL (≈ 6.22 µM), the MIC [5] was 4 µg/mL (≈ 12.4 µM) and the MIC [6] was 4 µg/mL (≈ 12.4 µM).

For `CCCc1c(O)cc2oc3cc(Cl)c(C=NO)n3c(=O)c2c1O` [Example 10, 2-Chloro-6,8-dihydroxy-9-oxo-7-propyl-9H-pyrrolo[2,1-b][1,3]benzoxazine-1-carboxaldehyde, oxime], the MIC [1] was 32 µg/mL (≈ 95 µM), the MIC [2] was greater than 64 µg/mL and the MIC [3] was greater than 64 µg/mL. It also gave an MIC [4] of 8 µg/mL (≈ 23.8 µM), an MIC [5] of 32 µg/mL (≈ 95 µM) and an MIC [6] of 16 µg/mL (≈ 47.5 µM).

Work on `CCCc1c(OC(C)=O)cc2oc3cc(Cl)cn3c(=O)c2c1OC(C)=O` [Example 13, 6,8-Bis(acetyloxy)-2-chloro-7-propyl-9H-pyrrolo [2,1-b][1,3]benzoxazin-9-one] yielded an MIC [1] of 8 µg/mL (≈ 21.2 µM), an MIC [2] greater than 64 µg/mL and an MIC [3] of 64 µg/mL (≈ 169 µM). The MIC [4] was 8 µg/mL (≈ 21.2 µM), the MIC [5] was 4 µg/mL (≈ 10.6 µM) and the MIC [6] was 4 µg/mL (≈ 10.6 µM).
